Measurements from patent US12187723B2 (BRISTOL-MYERS SQUIBB COMPANY, priority 2019, dated 2025).

molecular target: T1, human TLR8 (Homo sapiens, UniProt Q9NR97); experiment: TLR8 inhibition reporter assay (HEK-Blue SEAP); format: cell-based; conditions: HEK-Blue cells overexpressing human TLR8, R848 15.9 μM, 22 hour incubation
T1 construct: host or cells: HEK-Blue cells
T1 sequence (Q9NR97 27-1041): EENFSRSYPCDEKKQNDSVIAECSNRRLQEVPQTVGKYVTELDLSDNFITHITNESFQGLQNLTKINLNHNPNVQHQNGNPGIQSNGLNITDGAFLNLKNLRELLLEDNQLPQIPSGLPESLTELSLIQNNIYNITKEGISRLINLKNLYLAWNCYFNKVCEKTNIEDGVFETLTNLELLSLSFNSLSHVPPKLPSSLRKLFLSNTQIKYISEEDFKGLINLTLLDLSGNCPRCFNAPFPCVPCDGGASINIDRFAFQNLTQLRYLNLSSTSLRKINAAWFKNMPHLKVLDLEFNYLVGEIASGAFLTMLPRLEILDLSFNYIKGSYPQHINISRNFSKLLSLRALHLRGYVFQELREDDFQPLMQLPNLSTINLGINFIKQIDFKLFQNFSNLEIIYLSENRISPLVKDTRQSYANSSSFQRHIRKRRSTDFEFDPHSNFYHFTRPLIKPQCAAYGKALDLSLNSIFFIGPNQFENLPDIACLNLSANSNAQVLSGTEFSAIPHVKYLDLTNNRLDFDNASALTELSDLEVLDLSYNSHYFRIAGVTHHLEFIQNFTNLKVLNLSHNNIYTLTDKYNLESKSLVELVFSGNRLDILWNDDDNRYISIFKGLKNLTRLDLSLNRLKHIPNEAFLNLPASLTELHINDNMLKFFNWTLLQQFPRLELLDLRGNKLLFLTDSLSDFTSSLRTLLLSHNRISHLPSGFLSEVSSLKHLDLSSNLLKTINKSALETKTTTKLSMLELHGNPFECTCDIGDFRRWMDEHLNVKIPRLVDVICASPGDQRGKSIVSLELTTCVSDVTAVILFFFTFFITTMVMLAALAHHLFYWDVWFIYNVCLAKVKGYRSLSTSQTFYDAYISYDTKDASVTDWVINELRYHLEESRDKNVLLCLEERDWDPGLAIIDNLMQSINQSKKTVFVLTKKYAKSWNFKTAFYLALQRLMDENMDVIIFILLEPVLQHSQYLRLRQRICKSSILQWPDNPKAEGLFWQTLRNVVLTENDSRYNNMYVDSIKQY
In short: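 HEK-Blue cells overexpressing human TLR7, TLR8 or TLR9 carry a SEAP reporter driven by NF-κB/AP-1 sites. Compounds (0.05 nM–50 μM) were preincubated 30 min at room temperature, then cells were stimulated with gardiquimod 7.5 μM (TLR7), R848 15.9 μM (TLR8) or ODN2006 5 nM (TLR9) for 22 h at 37 °C.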

IC50 [nM]	Structure (SMILES)
354	COc1cc(-c2cc3[nH]c(=O)n([C@@H]4CCCN(CC(=O)N(C)C)C4)c3cc2C)cn2ncnc12 [Example 99, (R)-2-(3-(5-(8-methoxy-[1,2,4]triazolo[1,5-a]pyridin-6-yl)-6-methyl-2-oxo-2,3-dihydro-1H-benzo[d]imidazol-1-yl)piperidin-1-yl)-N,N-dimethylacetamide]
1.5	COc1cc(-c2cc3[nH]c(=O)n([C@H]4CCCN(C5CCC5)C4)c3cc2C(C)C)cn2ncnc12 [Example 122, (S)-1-(1-cyclobutylpiperidin-3-yl)-6-isopropyl-5-(8-methoxy-[1,2,4]triazolo[1,5-a]pyridin-6-yl)-1,3-dihydro-2H-benzo[d]imidazol-2-one]
8.52	CCC(CC)CN1CCC[C@H](n2c(=O)[nH]c3cc(-c4cc(OC)c5ncnn5c4)c(C(C)C)cc32)C1 [Example 130, (S)-1-(1-(2-ethylbutyl)piperidin-3-yl)-6-isopropyl-5-(8-methoxy-[1,2,4]triazolo[1,5-a]pyridin-6-yl)-1,3-dihydro-2H-benzo[d]imidazol-2-one]
2.1	Cc1c(-c2cc3[nH]c(=O)n([C@@H]4CCCN(C(C)C)C4)c3cc2C(C)C)cn2ncnc2c1C [Example 145, (R)-5-(7,8-dimethyl-[1,2,4]triazolo[1,5-a]pyridin-6-yl)-6-isopropyl-1-(1-isopropylpiperidin-3-yl)-1,3-dihydro-2H-benzo[d]imidazol-2-one]
> 3130	Cc1cc(-c2ccc3c(c2)[nH]c(=O)n3C2CCN(C(C)C)CC2)cn2ncnc12 [Example 5, 1-(1-isopropylpiperidin-4-yl)-5-(8-methyl-[1,2,4]triazolo[1,5-a]pyridin-6-yl)-1,3-dihydro-2H-benzo[d]imidazol-2-one]
1.82	CCCN1CCC[C@H](n2c(=O)[nH]c3cc(-c4cc(OC)c5ncnn5c4)c(C(C)C)cc32)C1 [Example 121, (S)-6-isopropyl-5-(8-methoxy-[1,2,4]triazolo[1,5-a]pyridin-6-yl)-1-(1-propylpiperidin-3-yl)-1,3-dihydro-2H-benzo[d]imidazol-2-one]
0.29	COc1cc(-c2cc3[nH]c(=O)n([C@@H]4CCCN(C)C4)c3cc2C(F)(F)F)cn2ncnc12 [Example 114, (R)-5-(8-methoxy-[1,2,4]triazolo[1,5-a]pyridin-6-yl)-1-(1-methylpiperidin-3-yl)-6-(trifluoromethyl)-1,3-dihydro-2H-benzo[d]imidazol-2-one]
4.33	COc1cc(-c2cc3[nH]c(=O)n([C@H]4CCCN(C5CCOCC5)C4)c3cc2C(C)C)cn2ncnc12 [Example 124, (S)-6-isopropyl-5-(8-methoxy-[1,2,4]triazolo[1,5-a]pyridin-6-yl)-1-(1-(tetrahydro-2H-pyran-4-yl)piperidin-3-yl)-1,3-dihydro-2H-benzo[d]imidazol-2-one]
47.6	Cc1cc2c(cc1-c1cc(C)c3ncnn3c1)[nH]c(=O)n2[C@@H]1CCCN(C(=O)CN(C)C)C1 [Example 104, (R)-1-(1-(dimethylglycyl)piperidin-3-yl)-6-methyl-5-(8-methyl-[1,2,4]triazolo[1,5-a]pyridin-6-yl)-1,3-dihydro-2H-benzo[d]imidazol-2-one]
3.92	COc1cc(-c2cc3[nH]c(=O)n([C@@H]4CCCN(CC5CCC5)C4)c3cc2C(C)C)cn2ncnc12 [Example 140, (R)-1-(1-(cyclobutylmethyl)piperidin-3-yl)-6-isopropyl-5-(8-methoxy-[1,2,4]triazolo[1,5-a]pyridin-6-yl)-1,3-dihydro-2H-benzo[d]imidazol-2-one]
1.52	COc1cc(-c2cc3[nH]c(=O)n(C4CCN(C)CC4)c3cc2C(C)C)cn2ncnc12 [Example 154, 6-isopropyl-5-(8-methoxy-[1,2,4]triazolo[1,5-a]pyridin-6-yl)-1-(1-methylpiperidin-4-yl)-1,3-dihydro-2H-benzo[d]imidazol-2-one]
5.93	CCCN1CCC[C@@H](n2c(=O)[nH]c3cc(-c4cc(OC)c5ncnn5c4)c(C(C)C)cc32)C1 [Example 134, (R)-6-isopropyl-5-(8-methoxy-[1,2,4]triazolo[1,5-a]pyridin-6-yl)-1-(1-propylpiperidin-3-yl)-1,3-dihydro-2H-benzo[d]imidazol-2-one]
541	Cc1cc(-c2cc(C)c3ncnn3c2)cc2[nH]c(=O)n(C3CCN(CC(=O)N(C)C)CC3)c12 [Example 109, N,N-dimethyl-2-(4-(7-methyl-5-(8-methyl-[1,2,4]triazolo[1,5-a]pyridin-6-yl)-2-oxo-2,3-dihydro-1H-benzo[d]imidazol-1-yl)piperidin-1-yl)acetamide]
339	Cc1cc2c(cc1-c1cc(C)c3ncnn3c1)[nH]c(=O)n2[C@@H]1CCCN(CC(N)=O)C1 [Example 94, (R)-2-(3-(6-methyl-5-(8-methyl-[1,2,4]triazolo[1,5-a]pyridin-6-yl)-2-oxo-2,3-dihydro-1H-benzo[d]imidazol-1-yl)piperidin-1-yl)acetamide]
7.03	CCC(CC)CN1CCC(n2c(=O)[nH]c3cc(-c4cc(OC)c5ncnn5c4)c(C(C)C)cc32)CC1 [Example 165, 1-(1-(2-ethylbutyl)piperidin-4-yl)-6-isopropyl-5-(8-methoxy-[1,2,4]triazolo[1,5-a]pyridin-6-yl)-1,3-dihydro-2H-benzo[d]imidazol-2-one]
1.53	CCCN(CCC)[C@H]1CC[C@@H](n2c(=O)[nH]c3cc(-c4cc(OC)c5ncnn5c4)c(CC)cc32)CC1 [Example 168, 1-((1s,4s)-4-(dipropylamino)cyclohexyl)-6-ethyl-5-(8-methoxy-[1,2,4]triazolo[1,5-a]pyridin-6-yl)-1,3-dihydro-2H-benzo[d]imidazol-2-one]

Structure (SMILES)	IC50 [nM]
Cc1cc(-c2cc(C)c3ncnn3c2)cc2[nH]c(=O)n(C3CCN(C)CC3)c12 [Example 106, 7-methyl-5-(8-methyl-[1,2,4]triazolo[1,5-a]pyridin-6-yl)-1-(1-methylpiperidin-4-yl)-1,3-dihydro-2H-benzo[d]imidazol-2-one]	150
COc1cc(-c2cc3[nH]c(=O)n(C4CCN(C5CCOC5)CC4)c3cc2C(C)C)cn2ncnc12 (stereo not drawn) [Example 162, 6-isopropyl-5-(8-methoxy-[1,2,4]triazolo[1,5-a]pyridin-6-yl)-1-(1-(tetrahydrofuran-3-yl)piperidin-4-yl)-1,3-dihydro-2H-benzo[d]imidazol-2-one]	6.56
COc1cc(-c2cc3[nH]c(=O)n(C4CCN(CC5CCOC5)CC4)c3cc2C(C)C)cn2ncnc12 (stereo not drawn) [Example 160, 6-isopropyl-5-(8-methoxy-[1,2,4]triazolo[1,5-a]pyridin-6-yl)-1-(1-((tetrahydrofuran-3-yl)methyl)piperidin-4-yl)-1,3-dihydro-2H-benzo[d]imidazol-2-one]	5.62
COc1cc(-c2cc3[nH]c(=O)n(C4CCN(CC5CCOCC5)CC4)c3cc2C(C)C)cn2ncnc12 [Example 159, 6-isopropyl-5-(8-methoxy-[1,2,4]triazolo[1,5-a]pyridin-6-yl)-1-(1-((tetrahydro-2H-pyran-4-yl)methyl)piperidin-4-yl)-1,3-dihydro-2H-benzo[d]imidazol-2-one]	4.52
COc1cc(-c2cc3[nH]c(=O)n(C4CCN(CC5CC5)CC4)c3cc2C(C)C)cn2ncnc12 [Example 161, 1-(1-(cyclopropylmethyl)piperidin-4-yl)-6-isopropyl-5-(8-methoxy-[1,2,4]triazolo[1,5-a]pyridin-6-yl)-1,3-dihydro-2H-benzo[d]imidazol-2-one]	6.04
